# Laboratory results: ChEMBL document CHEMBL1126450, “Semisynthetic modification of hygromycin A. 3. synthesis and antibacterial activity of aminocyclitol analogs” (1992)
# Tests used:
# Pasteurella multocida = assay: The minimum inhibitory concentration (MIC) of the cyclohexylamide analogs against Pasteurella multocida; assay type: functional
# [1] = test system: Brachyspira hyodysenteriae; assay: The minimum inhibitory concentration (MIC) of the cyclohexylamide analogs against Serpulina hyodysenteriae; assay type: functional
SMILES,MIC (Pasteurella multocida),MIC [1]
CC(=O)[C@H]1O[C@@H](Oc2ccc(/C=C(/C)C(=O)N[C@H]3[C@@H](O)[C@@H]4OCO[C@@H]4[C@H](O)[C@@H]3O)cc2O)[C@@H](O)[C@@H]1O,12.5 µg/mL,3.13 µg/mL
CC(=O)[C@H]1O[C@@H](Oc2ccc(/C=C(\C)C(=O)N[C@H]3C4OC(C5OCOC54)[C@H]3O)cc2O)[C@@H](O)[C@@H]1O (some centres undefined),> 200 µg/mL,> 200 µg/mL
CO[C@@H]1[C@H](O)[C@@H](O)[C@@H](NC(=O)/C(C)=C\c2ccc(O[C@@H]3O[C@H](C(C)=O)[C@@H](O)[C@@H]3O)c(O)c2)[C@@H](O)[C@@H]1OC,> 400 µg/mL,100 µg/mL
CO[C@@H]1[C@H](NC(=O)/C(C)=C\c2ccc(O[C@@H]3O[C@H](C(C)=O)[C@@H](O)[C@@H]3O)c(O)c2)[C@H](O)[C@@H](O)[C@H]2OCO[C@H]21,12.5 µg/mL,6.25 µg/mL
CO[C@@H]1[C@@H](O)[C@@H](NC(=O)/C(C)=C\c2ccc(O[C@@H]3O[C@H](C(C)=O)[C@@H](O)[C@@H]3O)c(O)c2)[C@@H](O)[C@@H]2OCO[C@H]12,100 µg/mL,25 µg/mL
CO[C@@H]1[C@@H](O)[C@H]2OCO[C@H]2[C@H](O)[C@@H]1NC(=O)/C(C)=C\c1ccc(O[C@@H]2O[C@H](C(C)=O)[C@@H](O)[C@@H]2O)c(O)c1,12.5 µg/mL,3.13 µg/mL
CC(=O)[C@H]1O[C@@H](Oc2ccc(/C=C(\C)C(=O)N[C@@H]3[C@H](O)[C@@H](O)[C@H]4OCO[C@H]4[C@@H]3O)cc2O)[C@@H](O)[C@@H]1O [HYGROMYCIN A],1.56 µg/mL,1.56 µg/mL
